Measurements published in PMC4827351 (Chemical Science, 2015).

Assays:
[1] = Negative-staining TEM of peptide self-assembly; format: physicochemical; settings: for fibrils (TEM), time course of trypsin treatment: room temperature, 10 mM sodium phosphate pH 7.4
Protocol: (§1) Fig. 3 TEM analysis of HD6 self-assembly and SEM analysis of bacterial agglutination. Top row: transmission electron micrographs of 10 mM sodium phosphate pH 7.4 (control), 0.4 μM trypsin (control), 20 μM proHD6 in the absence and presence of 0.4 μM trypsin, and 20 μM HD6. All the samples were incubated at room temperature for 1 h. Scale bar = 100 nm. TEM images obtained using 10 mM Tris-maleate pH 6.4 are presented in Fig. S7. ^† Middle row: scanning electron micrographs of E. coli ATCC 25922 treated with 50 mM Tris-maleate pH 6.4 (control), 0.4 μM APMSF-inactivated trypsin (control), 3 μM proHD6, 3 μM trypsin-cleaved proHD6, or 3 μM HD6. Trypsin-cleaved proHD6 was prepared prior to incubation with the bacteria and the residual enzymatic activity was inhibited by APMSF (Experimental section). Following a 30 min incubation, the bacterial suspensions were centrifuged, fixed, and analyzed by SEM. Scale bar = 20 μm. Bottom row: SEM of L. monocytogenes ATCC19115 treated under the same conditions as in the middle row. Scale bar = 20 μm.
The samples for TEM were prepared by following a literature protocol.[15] For each sample, a 5 μL aliquot of peptide solution (20 μM in 10 mM sodium phosphate pH 7.4 or 10 mM Tris-maleate pH 6.4) was placed onto the carbon-coated surface of a copper grid (400 square mesh, Electron Microscopy Sciences). After 1 min, the grid was washed with a 5 μL aliquot of Milli-Q water, stained with a 5 μL aliquot of 2% uranyl acetate (UA, Electron Microscopy Sciences) in Milli-Q water three times, and air-dried for at least 15 min before imaging. A FEI Technai Spirit Transmission Electron Microscope was employed for all TEM imaging (W.M. Keck Microscopy Facility, Whitehead Institute, Cambridge, MA). TEM images were obtained with at least two independently prepared peptides and representative images are presented.
Figure S7. TEM analysis of trypsin-catalyzed proteolysis of proHD6 in Tris-maleate buffer.
Transmission electron micrographs of 10 mM Tris- maleate pH 6.4 (control), 0.4 µM trypsin (control), 20 µM proHD6 in the absence and presence of 0.4 µM trypsin, and 20 µM HD6. All samples were incubated at room temperature for 1 h. Scale bar = […].
Figure S8. Time course of trypsin-catalyzed proteolysis of proHD6 monitored by TEM.
Transmission electron micrographs of 20 µM proHD6 after treatment with 0.4 µM trypsin at room temperature for the indicated time. All the samples were in 10 mM sodium phosphate […]

[2] = test system: L. monocytogenes ATCC19115; experiment: SEM analysis of bacterial agglutination; format: cell-based, Listeria monocytogenes; settings: 3 µM proHD6 treated with trypsin before incubation (trypsin inactivated with APMSF), 30 min, 50 mM Tris-maleate pH 6.4
Protocol: as §1
(§2) Bacteria were grown aerobically at 37 °C overnight in LB media. The next morning the strains were subcultured and grown to mid-logarithmic phase in LB media. […]

[3] = test system: E. coli ATCC 25922; experiment: SEM analysis of bacterial agglutination; format: cell-based, Escherichia coli; settings: 3 µM proHD6 treated with trypsin before incubation (trypsin inactivated with APMSF), 30 min, 50 mM Tris-maleate pH 6.4
Protocol: as §1, §2

With “EPLQAEDDPLQAKAYEADAQEQRGANDQDFAVSFAEDASSSLRALGSTRAFTCHCRRSCYSTEYSYGTCTVMGINHRFCCL (disulfide (positions not given here)) [proHD6, 81-residue propeptide of human α-defensin 6, recombinant, from His6-SUMO-proHD6]” as the sequence, how does the “formation of higher-order oligomers (TEM)” value ([1]; 20 µM peptide, 10 mM sodium phosphate pH 7.4 or 10 mM Tris-maleate pH 6.4, room temperature 1 h, no trypsin) read?
Its value is “no evidence for the formation of higher-order oligomers”.

What about the “fibrils (TEM), time course of trypsin treatment” value ([1]; 20 µM proHD6 + 0.4 µM trypsin, 5 min) of the same sequence?
The value was “relatively short fibrils”.

And the “fibrils (TEM), time course of trypsin treatment” value ([1]; 20 µM proHD6 + 0.4 µM trypsin, 60 min)?
The value was “closely resembled those of mature HD6”.

And the “formation of fibrils (TEM) after addition of trypsin” value ([1]; 20 µM proHD6 + 0.4 µM trypsin, room temperature 1 h, 10 mM sodium phosphate pH 7.4 or 10 mM Tris-maleate pH 6.4)?
The value was “fibril-like features comparable to those observed for the mature HD6 peptide”.

And the “bacterial agglutination (SEM), trypsin-cleaved” value [2]?
The value was “same trypsin-dependent activity”.

What about the “bacterial agglutination (SEM), trypsin-cleaved” value [3] of the same sequence?
The value was “entangled and agglutinated E. coli”.
